Assay [1] deals with T1, Steroid Delta-isomerase (Pseudomonas putida, UniProt P07445).
T1 sequence (P07445 whole entry): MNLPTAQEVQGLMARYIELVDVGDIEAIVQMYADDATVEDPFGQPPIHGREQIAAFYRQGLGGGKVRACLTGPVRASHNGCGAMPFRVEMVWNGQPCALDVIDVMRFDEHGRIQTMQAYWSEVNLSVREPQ
Put plainly: Binding affinity to Pseudomonas putida KSI by isothermal titration calorimetry.

The target in assay [2] is T1, Steroid Delta-isomerase. Put plainly: Binding affinity to Pseudomonas putida KSI by surface plasmon resonance analysis.
In assay [3] the target is T2, Steroid Delta-isomerase (Pseudomonas putida) (UniProt P07445).
T2 sequence (whole entry): T1 sequence (P07445 whole entry)
Put plainly: Ratio of KD for Pseudomonas putida KSI by surface plasmon resonance analysis to KD for Pseudomonas putida KSI by surface plasmon resonance analysis. In general terms: In SPR one partner is held on a chip, and binding of the other changes the refractive index at the surface.

Each structure is given as a SMILES string.

The Kd is the equilibrium constant for the complex coming apart. The low end stands for tighter binding, the high end for weaker binding.

In assay [1], `NC(=O)Nc1cccc(C(F)(F)F)c1` yielded a Kd of 46 µM.
Take `Cn1cc(C(N)=O)c2ccccc21`: binding in assay [1] was put at a Kd of 63 µM.
Still for that read-out and setting: in the case of `Cc1nnc2ccc(N3CCCC3)nn12` it was 22 µM; in that of `NC(=O)/C=C/c1cccc(C(F)(F)F)c1`, 50 µM.
Consider `C[C@H](CCC(=O)O)[C@H]1CC[C@H]2[C@@H]3CC[C@@H]4C[C@H](O)CC[C@]4(C)[C@H]3C[C@H](O)[C@]12C` [DEOXYCHOLIC ACID], for which the Kd in assay [1] and in assay [2] was 16 µM throughout.
As to `CN1CCC2(C)c3cc(O)ccc3N(C)C12` (stereo not drawn), the Ratio in assay [3] was 1.8. In addition, in assay [1], binding was put at a Kd of 180 µM.

Source of the values: ChEMBL document CHEMBL2321749, “Incorporation of rapid thermodynamic data in fragment-based drug discovery” (J Med Chem, 2013).
